This note sets out measurements from patent publication US11274100B2, “EP300/CREBBP inhibitor” (Daiichi Sankyo Company, Limited, priority 2017, dated 2022).

One experiment addresses EP300 (Homo sapiens, UniProt Q09472). In words: Histone acetyltransferase inhibitory activity against EP300 (Test Example 1). Type of experiment: biochemical. Particulars: 50 ng/mL EP300, 2 μM Acetyl-CoA, 100 nM Histone H4(1-25)-GSGSK (Biotin), 28° C. for 1 hour. On the procedure: (§1) [Test Example 1] Evaluation of Histone
(§2) Acetyltransferase Inhibitory Activity against EP300 and CREBBP
(§3) 10 μL each of reaction solutions each containing a different concentration of the compound of each of Examples 1 to 108b (50 mM Tris-HCl (pH8.0), 0.1 mM EDTA, 1 mM dithiothreitol, 0.01% Tween-20, 0.01% Bovine serum albumin, 330 nM trichostatin A, 2 μM Acetyl-CoA (Sigma-Aldrich, #A2056), 100 nM Histone H4(1-25)-GSGSK (Biotin) (Anaspec, #65242-1), 1% dimethyl sulfoxide, 10 to 0.0006 μM of each compound, 50 ng/mL EP300 or 125 ng/mL CREBBP) was added to respective wells of a 384-well plate, and cultured at 28° C. for 1 hour. Thereafter, 5 μL of 30 μM Lys-CoA (Daiichi Sankyo Co., Ltd.) dissolved in LANCE detection buffer (Perkin Elmer Co., Ltd., #CR97-100) was added to each well. Furthermore, 5 μL of LANCE detection buffer containing 2 nM Eu-anti pan-Ac (Perkin Elmer Co., Ltd., #TRF0412) and 50 nM Sta-Ulight (Perkin Elmer Co., Ltd., #TRF0102) was added to each well, and the resultant was cultured at room temperature overnight. EnVision (Perkin Elmer Co., Ltd., Model 2104-0020) was used to measure ULight signals. […] EP300 and CREBBP were produced and purified by Daiichi Sankyo RD Novare Co., Ltd.

The test system of the next experiment is TE-8 cells. Description: Cell growth inhibitory activity, TE-8 cells (Test Example 3). Particulars: Homo sapiens, 72 h, cultured for 3 days, CellTiter-Glo. Type of experiment: cell-based. On the procedure: (§4) [Test Example 3] Evaluation of Cell Growth Inhibitory Activity
(§5) As a culture medium for each cell, a 10% FBS supplemented RPMI 1640 medium (for LK2 cells and TE-8 cells derived from human esophageal cancer) was used. LK2 cells were purchased from Human Science Research Resources Bank, and TE-8 cells were purchased from Riken Cell Bank. The compound of each of Examples 1 to 108b was prepared by dilution with Freedom EVO 150 (Tecan Trading AG) (4-fold diluted, 10 stages, 10 mM to 38 nM). The resultant was added to respective wells of a 384-well plate in an amount of 40 nL/well using Echo 555 (Labcyte Inc.). The LK2 or TE-8 cells were seeded in the plate at 400 cells/40 μL/well (day 0), and were cultured for 3 days. On the day of addition of the compound (day 0) and 3 days after the addition of the compound (day 3), an ATP measurement reagent of CellTiter-Glo (registered trademark) 2.0 Assay (Promega Corporation, #G9242) was added to each well in an amount of 10 μL/well, and the amount of luminescence of each well was measured using EnVision. Based on the amount of luminescence (C0) on the day of the addition of the compound, and the amounts of luminescence of a compound non-addition group (C3) and a compound addition group (T3) obtained after the 3-day culture of the compound, a cell survival rate was calculated in accordance with the following expression: Cell survival rate (%)=(T3−C0)/(C3−C0)×100
(§6) A concentration (GI50 value) of each compound at which the growth of the TE-8 or LK-2 cells was inhibited by 50% was calculated by semilogarithmically plotting the cell survival rate at each concentration and the compound concentration.

Another experiment relates to H3K27Ac. Description: Intracellular H3K27Ac inhibitory activity in LK2 cells (Test Example 2). Type of experiment: cell-based. Particulars: Homo sapiens, LK-2, cultured with compound for 3 hours, read-out: Test Example 2 H3K27Ac Inhibition (LK2) IC50. The gist of the method: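 Human squamous lung cancer LK2 cells (40000/well) cultured overnight at 37 °C, 5% CO2 before treatment. After paraformaldehyde fixation, peroxide quench and blocking, H3K27 acetylation detected with anti-acetyl-H3K27 rabbit mAb (4 °C overnight) and HRP secondary; chemiluminescent read-out.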

Another experiment has as its target CREBBP (Homo sapiens, UniProt Q92793). Description: Histone acetyltransferase inhibitory activity against CREBBP (Test Example 1). The format is biochemical. Particulars: 125 ng/mL CREBBP, 2 μM Acetyl-CoA, 100 nM Histone H4(1-25)-GSGSK (Biotin), 28° C. for 1 hour. On the procedure:
as §1, §2, §3

In another experiment the test system is LK2 cells. In words: Cell growth inhibitory activity, LK2 cells (Test Example 3). To be noted: Homo sapiens, LK-2, 72 h, cultured for 3 days, CellTiter-Glo. The format is cell-based. The method, then: as §4, §5, §6
(In general: In ATP-based viability assays light output follows the ATP content of the culture.)

SMILES strings stand for the structures. pIC50: −log10 of the molar value.

Sequence of EP300 (Q09472 whole entry): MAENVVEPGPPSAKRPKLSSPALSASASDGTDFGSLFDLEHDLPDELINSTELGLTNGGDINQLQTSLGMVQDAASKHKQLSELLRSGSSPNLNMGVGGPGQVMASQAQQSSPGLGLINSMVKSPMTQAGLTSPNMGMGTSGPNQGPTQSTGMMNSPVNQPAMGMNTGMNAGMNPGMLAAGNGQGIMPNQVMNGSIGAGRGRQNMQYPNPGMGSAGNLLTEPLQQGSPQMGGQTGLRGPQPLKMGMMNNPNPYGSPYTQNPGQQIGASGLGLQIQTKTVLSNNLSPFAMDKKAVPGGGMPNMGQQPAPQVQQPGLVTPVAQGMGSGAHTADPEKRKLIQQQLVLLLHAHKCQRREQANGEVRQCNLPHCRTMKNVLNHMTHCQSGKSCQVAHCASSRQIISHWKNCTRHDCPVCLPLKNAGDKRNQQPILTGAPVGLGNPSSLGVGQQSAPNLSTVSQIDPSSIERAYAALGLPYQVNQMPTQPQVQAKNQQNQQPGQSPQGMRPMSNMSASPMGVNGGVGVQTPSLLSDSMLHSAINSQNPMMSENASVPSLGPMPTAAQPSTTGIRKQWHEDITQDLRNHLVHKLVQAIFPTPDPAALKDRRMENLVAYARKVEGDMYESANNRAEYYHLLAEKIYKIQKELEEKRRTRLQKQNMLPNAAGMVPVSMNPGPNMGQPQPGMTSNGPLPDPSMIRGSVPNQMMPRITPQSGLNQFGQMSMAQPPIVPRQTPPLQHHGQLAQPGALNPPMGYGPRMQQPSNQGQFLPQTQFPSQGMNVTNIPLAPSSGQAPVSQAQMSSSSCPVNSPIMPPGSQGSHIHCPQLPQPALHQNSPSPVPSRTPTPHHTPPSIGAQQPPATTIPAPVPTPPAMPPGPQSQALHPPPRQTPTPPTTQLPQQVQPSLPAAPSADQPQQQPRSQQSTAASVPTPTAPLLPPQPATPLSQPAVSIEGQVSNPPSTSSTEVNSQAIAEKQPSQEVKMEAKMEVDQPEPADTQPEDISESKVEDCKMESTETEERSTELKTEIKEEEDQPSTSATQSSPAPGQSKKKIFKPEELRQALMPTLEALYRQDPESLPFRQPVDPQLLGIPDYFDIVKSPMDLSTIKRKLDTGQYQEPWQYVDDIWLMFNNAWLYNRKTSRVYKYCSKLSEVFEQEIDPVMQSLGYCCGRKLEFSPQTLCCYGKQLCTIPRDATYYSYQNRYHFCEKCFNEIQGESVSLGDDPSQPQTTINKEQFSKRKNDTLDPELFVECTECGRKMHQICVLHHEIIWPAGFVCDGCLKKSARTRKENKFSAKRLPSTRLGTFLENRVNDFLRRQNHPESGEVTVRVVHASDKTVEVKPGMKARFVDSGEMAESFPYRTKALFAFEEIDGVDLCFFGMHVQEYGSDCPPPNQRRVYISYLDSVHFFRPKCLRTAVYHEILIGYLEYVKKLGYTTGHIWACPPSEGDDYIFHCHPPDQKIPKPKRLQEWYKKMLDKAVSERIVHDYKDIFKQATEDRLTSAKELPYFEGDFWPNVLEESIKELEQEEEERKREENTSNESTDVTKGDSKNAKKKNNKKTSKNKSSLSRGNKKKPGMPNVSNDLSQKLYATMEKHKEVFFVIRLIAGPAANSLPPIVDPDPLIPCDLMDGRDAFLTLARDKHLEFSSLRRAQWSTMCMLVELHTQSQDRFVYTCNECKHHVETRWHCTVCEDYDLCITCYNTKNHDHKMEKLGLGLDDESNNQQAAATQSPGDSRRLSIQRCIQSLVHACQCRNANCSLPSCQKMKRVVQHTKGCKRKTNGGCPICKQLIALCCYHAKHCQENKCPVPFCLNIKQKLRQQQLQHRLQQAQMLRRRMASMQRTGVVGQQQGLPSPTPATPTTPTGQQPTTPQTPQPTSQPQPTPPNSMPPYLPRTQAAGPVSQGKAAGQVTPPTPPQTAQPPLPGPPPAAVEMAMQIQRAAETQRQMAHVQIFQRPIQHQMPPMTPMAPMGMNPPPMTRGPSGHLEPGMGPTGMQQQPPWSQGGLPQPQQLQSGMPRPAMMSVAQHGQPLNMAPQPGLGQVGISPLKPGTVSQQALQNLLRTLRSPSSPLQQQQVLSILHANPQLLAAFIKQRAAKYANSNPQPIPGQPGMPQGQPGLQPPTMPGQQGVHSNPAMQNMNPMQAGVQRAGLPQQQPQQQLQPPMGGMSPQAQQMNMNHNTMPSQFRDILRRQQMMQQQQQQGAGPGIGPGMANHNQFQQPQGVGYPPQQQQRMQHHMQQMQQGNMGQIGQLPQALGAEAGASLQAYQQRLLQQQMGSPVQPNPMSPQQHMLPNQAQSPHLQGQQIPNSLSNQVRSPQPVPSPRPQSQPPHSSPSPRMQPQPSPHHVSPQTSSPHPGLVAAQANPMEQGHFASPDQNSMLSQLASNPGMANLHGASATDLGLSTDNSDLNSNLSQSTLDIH
Sequence of CREBBP (Q92793 whole entry): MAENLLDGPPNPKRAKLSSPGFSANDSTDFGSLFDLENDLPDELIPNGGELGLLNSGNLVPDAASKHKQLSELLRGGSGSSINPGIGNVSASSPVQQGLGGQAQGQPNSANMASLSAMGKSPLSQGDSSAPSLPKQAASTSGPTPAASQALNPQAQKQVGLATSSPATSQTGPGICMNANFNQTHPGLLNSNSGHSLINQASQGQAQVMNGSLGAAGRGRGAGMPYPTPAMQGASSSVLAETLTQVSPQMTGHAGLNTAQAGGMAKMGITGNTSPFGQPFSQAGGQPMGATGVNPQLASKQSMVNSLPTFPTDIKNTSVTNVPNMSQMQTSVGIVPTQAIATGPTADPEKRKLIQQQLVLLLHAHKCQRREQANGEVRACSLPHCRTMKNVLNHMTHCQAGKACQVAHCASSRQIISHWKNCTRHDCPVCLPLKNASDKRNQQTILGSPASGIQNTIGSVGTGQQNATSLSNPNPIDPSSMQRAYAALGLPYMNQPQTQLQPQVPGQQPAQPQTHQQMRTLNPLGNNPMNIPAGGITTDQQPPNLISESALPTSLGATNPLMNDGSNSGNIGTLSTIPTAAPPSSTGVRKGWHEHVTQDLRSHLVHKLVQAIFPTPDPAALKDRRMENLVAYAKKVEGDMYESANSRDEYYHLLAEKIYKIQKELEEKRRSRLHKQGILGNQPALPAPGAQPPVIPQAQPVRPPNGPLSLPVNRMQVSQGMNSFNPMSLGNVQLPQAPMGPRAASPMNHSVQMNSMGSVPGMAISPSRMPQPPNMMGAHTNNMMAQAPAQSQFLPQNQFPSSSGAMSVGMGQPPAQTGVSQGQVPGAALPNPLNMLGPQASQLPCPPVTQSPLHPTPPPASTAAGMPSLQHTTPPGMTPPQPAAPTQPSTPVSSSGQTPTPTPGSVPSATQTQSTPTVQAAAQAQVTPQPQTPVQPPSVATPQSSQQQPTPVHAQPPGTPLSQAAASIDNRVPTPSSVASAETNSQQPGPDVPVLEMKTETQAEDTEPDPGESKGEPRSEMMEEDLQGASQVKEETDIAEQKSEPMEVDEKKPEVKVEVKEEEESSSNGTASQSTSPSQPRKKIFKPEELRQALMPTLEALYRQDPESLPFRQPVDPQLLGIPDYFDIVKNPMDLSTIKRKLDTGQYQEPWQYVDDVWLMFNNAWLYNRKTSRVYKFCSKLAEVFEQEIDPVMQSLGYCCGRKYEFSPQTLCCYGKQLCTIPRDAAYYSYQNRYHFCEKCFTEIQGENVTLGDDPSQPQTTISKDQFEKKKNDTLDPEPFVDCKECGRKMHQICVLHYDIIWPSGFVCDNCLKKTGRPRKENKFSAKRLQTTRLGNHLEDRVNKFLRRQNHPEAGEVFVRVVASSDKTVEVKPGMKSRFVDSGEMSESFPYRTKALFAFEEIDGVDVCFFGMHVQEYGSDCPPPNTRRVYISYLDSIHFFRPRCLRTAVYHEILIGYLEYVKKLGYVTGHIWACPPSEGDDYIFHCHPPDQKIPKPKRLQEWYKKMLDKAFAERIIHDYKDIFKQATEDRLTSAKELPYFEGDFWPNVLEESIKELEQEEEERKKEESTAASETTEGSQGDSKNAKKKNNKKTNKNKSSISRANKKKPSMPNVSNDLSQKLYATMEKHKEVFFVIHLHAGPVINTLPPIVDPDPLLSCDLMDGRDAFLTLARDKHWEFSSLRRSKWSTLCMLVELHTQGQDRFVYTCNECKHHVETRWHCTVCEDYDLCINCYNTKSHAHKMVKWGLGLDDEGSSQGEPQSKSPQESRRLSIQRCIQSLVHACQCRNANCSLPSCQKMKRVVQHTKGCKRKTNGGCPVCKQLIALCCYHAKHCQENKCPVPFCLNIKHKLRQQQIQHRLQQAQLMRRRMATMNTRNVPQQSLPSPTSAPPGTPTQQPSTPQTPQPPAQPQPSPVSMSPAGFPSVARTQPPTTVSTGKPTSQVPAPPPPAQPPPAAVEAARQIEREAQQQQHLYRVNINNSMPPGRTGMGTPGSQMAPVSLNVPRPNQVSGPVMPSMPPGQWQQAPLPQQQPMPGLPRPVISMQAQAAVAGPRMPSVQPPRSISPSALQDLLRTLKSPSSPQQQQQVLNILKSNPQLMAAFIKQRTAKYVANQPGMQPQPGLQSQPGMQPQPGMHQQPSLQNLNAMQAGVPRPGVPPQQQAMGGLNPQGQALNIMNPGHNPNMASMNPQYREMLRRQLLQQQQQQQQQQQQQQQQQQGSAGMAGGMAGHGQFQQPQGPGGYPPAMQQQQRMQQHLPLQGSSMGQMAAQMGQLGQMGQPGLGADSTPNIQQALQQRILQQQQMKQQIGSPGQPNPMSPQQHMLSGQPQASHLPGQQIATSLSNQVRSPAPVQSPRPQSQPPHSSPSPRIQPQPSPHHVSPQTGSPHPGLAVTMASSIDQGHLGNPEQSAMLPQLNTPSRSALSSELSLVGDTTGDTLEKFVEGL

By pIC50 is commonly meant the negative decadic logarithm of the IC50, by convention in mol/L. As usually defined, the GI50 is the concentration giving 50% growth inhibition. Low readings indicate more potent growth inhibition, high ones less potent growth inhibition. For the compound `COc1ccc(C2(C(=O)N3CCC[C@@H]3C(=O)Nc3ccc4[nH]ncc4c3)CCCC2)cc1` [Example 24, N-1H-Indazol-5-yl-1-{[1-(4-methoxyphenyl)cyclopentyl]carbonyl}-D-prolinamide], the pIC50 against EP300 is 6.60; with H3K27Ac it was 6.04; against CREBBP it was 6.89. The GI50 came out at 4.06 µM in the experiment on TE-8 cells and 1.62 µM in the experiment on LK2 cells.
As to `COCc1cc2nc(NC(=O)[C@H]3C[C@@H](F)CN3C(=O)C3(c4ccc(OC(F)F)cc4)CCC(F)(F)CC3)ccc2[nH]1` [Example 105, (4R)-1-({1-[4-(Difluoromethoxy)phenyl]-4,4-difluorocyclohexyl}carbonyl)-4-fluoro-N-[2-(methoxymethyl)-1H-pyrrolo[3,2-b]pyridin-5-yl]-D-prolinamide], the pIC50 against EP300 is 7.30; in the experiment with H3K27Ac, 6.72; against CREBBP, 7.11. Besides, the GI50 in the experiment with TE-8 cells came to 0.989 µM; in the experiment with LK2 cells, 0.753 µM.
For `[2H]C([2H])([2H])N(C(=O)C1(c2ccc(OC)cc2)CCC(F)(F)CC1)[C@H](CO)C(=O)Nc1ccc2[nH]ncc2n1` [Example 76, 4,4-Difluoro-N-[(2R)-3-hydroxy-1-oxo-1-(1H-pyrazolo[4,3-b]pyridin-5-ylamino)propan-2-yl]-1-(4-methoxyphenyl)-N—(^2H3)methylcyclohexanecarboxamide] the same measures were 7.37, 7.92, 7.04, 0.127 µM and 0.0689 µM.
On to `COc1ccc(C(C)(C)C(=O)N2C[C@H](F)C[C@@H]2C(=O)Nc2ccc3[nH]ncc3n2)cc1` [Example 47], for which the pIC50 against EP300 is 7.89; with H3K27Ac, 7.11; against CREBBP, 7.23. In addition, the GI50 in the experiment with TE-8 cells was determined as 1.14 µM; with LK2 cells, 0.585 µM.
For `COc1ccc(C2(C(=O)N3C[C@H](F)C[C@@H]3C(=O)Nc3ccc4[nH]ccc4n3)CCC(F)(F)CC2)cc1` [Example 51], in that order: 7.39, 7.30, 7.27, 0.916 µM and 0.351 µM.
Take `COc1ccc(C2(C(=O)N3CC[C@@H](O)[C@@H]3C(=O)Nc3ccc4[nH]ccc4n3)CCC(F)(F)CC2)cc1` [Example 74, (3R)-1-{[4,4-Difluoro-1-(4-methoxyphenyl)cyclohexyl]carbonyl}-3-hydroxy-N-1H-pyrrolo[3,2-b]pyridin-5-yl-D-prolinamide]: the pIC50 against EP300 was 7.24; with H3K27Ac it was 7.07; against CREBBP, 7.07. Moreover, the GI50 in the experiment with TE-8 cells amounted to 0.599 µM; in the experiment with LK2 cells, 0.271 µM.
Consider `O=C(Nc1ccc2[nH]ncc2n1)[C@H]1C[C@@H](F)CN1C(=O)C1(c2ccc(OC(F)F)cc2)CC(F)(F)C1` [Example 90], for which the results for the negative logarithm of the IC50 (pIC50) at EP300, in the experiment with H3K27Ac and against CREBBP were 8.40, 8.05 and 8.15, respectively. Moreover, the values for the GI50 with TE-8 cells and in the experiment on LK2 cells were 0.106 µM and 0.0734 µM, respectively.
Consider `[2H]C([2H])([2H])N(C(=O)C1(c2ccc(OC)cc2)CCC(F)(F)CC1)[C@H](CO)C(=O)Nc1ccc2[nH]ccc2n1` [Example 77, 4,4-Difluoro-N-[(2R)-3-hydroxy-1-oxo-1-(1H-pyrrolo[3,2-b]pyridin-5-ylamino)propan-2-yl]-1-(4-methoxyphenyl)-N—(^2H3)methylcyclohexanecarboxamide], for which the pIC50 is 7.39 against EP300, 7.82 in the experiment with H3K27Ac and 7.28 against CREBBP. Besides, the values for the 50% growth inhibitory concentration (GI50) in the experiment with TE-8 cells and with LK2 cells were 0.199 µM and 0.102 µM, respectively.
For the compound `COc1ccc(C2(C(=O)N3CS(=O)(=O)C[C@@H]3C(=O)Nc3ccc4[nH]c(C)cc4n3)CCC(F)(F)CC2)cc1` [Example 79, (4S)-3-{[4,4-Difluoro-1-(4-methoxyphenyl)cyclohexyl]carbonyl}-N-(2-methyl-1H-pyrrolo[3,2-b]pyridin-5-yl)-1,3-thiazolidine-4-carboxamide 1,1-dioxide], the negative-log IC50 (pIC50) is 6.74 on EP300, 6.57 in the experiment on H3K27Ac and 6.71 at CREBBP. The 50% growth inhibitory concentration (GI50) in the experiment on TE-8 cells was found to be 1.67 µM; in the experiment with LK2 cells, 1.39 µM.
